{"source": "patent US20150175877A1", "about": "“ENVIRONMENTALLY ACCEPTABLE MULTIFUNCTIONAL ADDITIVE” (SCHLUMBERGER TECHNOLOGY CORPORATION, priority 2013, published 2015)", "test_system": "bacteria in North Sea location water", "assay": "Bacteria growth study in water using dipslides", "type": "cell-based", "conditions": "35° C., dipslide; for Bacteria count: two replicated tests", "experimental": "Bacteria Growth Study at 35° C. [95° F.]\nFollowing is the qualitative study of bacteria growth in water using dipslides. A dipslide is used to test the presence of microorganisms in liquids. Dipslides are the fastest and easiest way to measure the microbial activity in liquid-based systems and in this testing it is used to evaluate the performance of Bodoxin AE.", "data": [{"compound": "OCOCCOCO", "note": "[Bodoxin AE, (ethylenedioxy)dimethanol]", "values": [{"measurement": "Bacteria count in location water when biocide is used (in words)", "setting": "compared with tap or distilled water", "value": "reduced significantly reaching the same level as tap or distilled water"}, {"measurement": "Bacteria count", "setting": "biocide conc. 0.50 gpt", "value": "<10^3 (CFU/ml)"}, {"measurement": "Bacteria count", "setting": "biocide conc. 1.00 gpt", "value": "<10^3 (CFU/ml)"}, {"measurement": "Bacteria count", "setting": "biocide conc. 1.50 gpt", "value": "<10^3 (CFU/ml)"}]}]}
